Results: patent publication US20210275498A1, “IMIDAZOLYL ETHANAMIDE PENTANDIOIC ACID FOR USE IN THERAPY OF SYMPTOMS RELATED TO EXPOSURE TO LETHAL RADIATION” (priority 2018, published 2021)

Test system: C57BL/6 mice
Assay: Body weight after whole-body irradiation (response profile analysis)
Type: in vivo
Design: key to Supporting variable: Body weight (trend): positive trend (descriptively) +; negative trend (descriptively) −; no difference (descriptively) 0
Details: for Body weight: % Difference from Baseline (g) (difference to vehicle group 2 at Day 0) / Body weight: % Difference from Vehicle / Body weight: Estimate, change relative to vehicle group 2: 5.8 Gy; for Body weight: Estimate, change relative to vehicle group 2: Group 6 GL (SCx1): 0.34 mg/kg SC SID Day 1, 2, 3, therapeutic
Experimental: Body weights were assessed twice during acclimation (including Day −3), once prior to irradiation (Day 0), and every 3 days thereafter. Terminal body weights were also collected, with the exception of Animal 4012.
The longitudinal data were analyzed taking into account the mean weight over time in each group and the covariance among the repeated measures by response profile analysis (Fitzmaurice et al., Wiley 2004, p 103-140.). The analysis was specified as a regression model with unstructured covariance to account for the correlation among repeated body weights of the same mouse and indicator variables for treatment groups and time, where the vehicle treatment was used as the reference group and Day 0 was taken as a reference for time.
The response profile analyses provide the following regression coefficients estimated by the restricted maximum likelihood (REML) method: intercept—mean body weight in the reference groups VL (POx1);2 and VH (POx1);8 at Day 0 treatment—difference between the mean body weight in the treatment groups and the vehicle groups at Day 0 time—body weight change from baseline in the reference groups treatment×time—treatment effect at each day estimated by comparison of change from baseline in the treatment groups and control groups For all regression coefficients, p-values and 95%-confidence intervals are provided. This method provides interpretable estimates, is valid if treatment groups differ at baseline, allows for arbitrary patterns in the mean body weight over time (no specific time trend e. g. linear curve assumed) and arbitrary patterns in the covariance. The analysis has certain robustness, as potential risks due to model misspecification are minimal.

O=C(O)CCCC(=O)NCCc1c[nH]cn1 [Myelo001, 5-{[2-(1H-imidazol-4-yl)ethyl]amino}-5-oxo-pentanoic acid]
Body weight: % Difference from Baseline (g) (difference to vehicle group 2 at Day 0) (Day 0, Group 3 ML (IPx2): 25 mg/kg IP, Day −3 to 0 (6x), prophylactic): -0.8 g | Body weight: % Difference from Baseline (g) (difference to vehicle group 2 at Day 0) (Day 0, Group 4 ML (POx2): 25 mg/kg per os, Day −3 to 0 (6x), prophylactic): -0.3 g | Body weight: % Difference from Baseline (g) (difference to vehicle group 2 at Day 0) (Day 0, Group 5 ML (POx1): 50 mg/kg per os SID Day −2, −1, 0, prophylactic): -0.3 g | Body weight: Estimate (g), change relative to vehicle Group 8 (Day 0, Group 9 MH (POx1): 50 mg/kg per os SID Day 1, 2, 3, therapeutic, 6.0 Gy): 0.0 g | Body weight: % Difference from Vehicle (Day 3, Group 3 ML (IPx2): 25 mg/kg IP, Day −3 to 0 (6x), prophylactic): 0.6 g | Body weight: % Difference from Vehicle (Day 3, Group 4 ML (POx2): 25 mg/kg per os, Day −3 to 0 (6x), prophylactic): 0.7 g | Body weight: % Difference from Vehicle (Day 3, Group 5 ML (POx1): 50 mg/kg per os SID Day −2, −1, 0, prophylactic): 0.4 g | Body weight: Estimate (g), change relative to vehicle Group 8 (Day 3, Group 9 MH (POx1): 50 mg/kg per os SID Day 1, 2, 3, therapeutic, 6.0 Gy): 0.2 g | compensation of weight loss relative to vehicle Group 8 (amounts up to) (Day 3 to 30, Group 9 MH (POx1): 50 mg/kg per os SID Day 1, 2, 3, therapeutic, 6.0 Gy): up to 3.1 g | Body weight: % Difference from Vehicle (Day 9, Group 3 ML (IPx2): 25 mg/kg IP, Day −3 to 0 (6x), prophylactic): 0.5 g | Body weight: % Difference from Vehicle (Day 9, Group 4 ML (POx2): 25 mg/kg per os, Day −3 to 0 (6x), prophylactic): 0.6 g | Body weight: % Difference from Vehicle (Day 9, Group 5 ML (POx1): 50 mg/kg per os SID Day −2, −1, 0, prophylactic): 0.4 g | Body weight: Estimate (g), change relative to vehicle Group 8 (Day 9, Group 9 MH (POx1): 50 mg/kg per os SID Day 1, 2, 3, therapeutic, 6.0 Gy): 0.4 g | Body weight: % Difference from Vehicle (Day 15, Group 3 ML (IPx2): 25 mg/kg IP, Day −3 to 0 (6x), prophylactic): 0.1 g | Body weight: % Difference from Vehicle (Day 15, Group 4 ML (POx2): 25 mg/kg per os, Day −3 to 0 (6x), prophylactic): -0.8 g | Body weight: % Difference from Vehicle (Day 15, Group 5 ML (POx1): 50 mg/kg per os SID Day −2, −1, 0, prophylactic): -0.4 g | Body weight: Estimate (g), change relative to vehicle Group 8 (Day 15, Group 9 MH (POx1): 50 mg/kg per os SID Day 1, 2, 3, therapeutic, 6.0 Gy): 1.4 g | Body weight: % Difference from Vehicle (Day 21, Group 3 ML (IPx2): 25 mg/kg IP, Day −3 to 0 (6x), prophylactic): 1.0 g | Body weight: % Difference from Vehicle (Day 21, Group 4 ML (POx2): 25 mg/kg per os, Day −3 to 0 (6x), prophylactic): -0.7 g | Body weight: % Difference from Vehicle (Day 21, Group 5 ML (POx1): 50 mg/kg per os SID Day −2, −1, 0, prophylactic): -0.1 g | Body weight: Estimate (g), change relative to vehicle Group 8 (Day 21, Group 9 MH (POx1): 50 mg/kg per os SID Day 1, 2, 3, therapeutic, 6.0 Gy): 3.1 g | Body weight: % Difference from Vehicle (Day 30, Group 3 ML (IPx2): 25 mg/kg IP, Day −3 to 0 (6x), prophylactic): 0.1 g | Body weight: % Difference from Vehicle (Day 30, Group 4 ML (POx2): 25 mg/kg per os, Day −3 to 0 (6x), prophylactic): -1.1 g | Body weight: % Difference from Vehicle (Day 30, Group 5 ML (POx1): 50 mg/kg per os SID Day −2, −1, 0, prophylactic): 0.1 g | Body weight: Estimate (g), change relative to vehicle Group 8 (Day 30, Group 9 MH (POx1): 50 mg/kg per os SID Day 1, 2, 3, therapeutic, 6.0 Gy): 2.6 g | Supporting variable: Body weight (trend) (Group 9 MH (POx1): 50 mg/kg per os SID Day 1, 2, 3, therapeutic, 6.0 Gy): +

B1: G-CSF: Neupogen (Filgrastim; Granulocyte colony-stimulating factor; G-CSF), positive control article, Amgen (protein, UniProt P09919 31-207, looked up)
Granulocyte …: TPLGPASSLPQSFLLKCLEQVRKIQGDGAALQEKLVSECATYKLCHPEELVLLGHSLGIPWAPLSSCPSQALQLAGCLSQLHSGLFLYQGLLQALEGISPELGPTLDTLQLDVADFATTIWQQMEELGMAPALQPTQGAMPAFASAFQRRAGGVLVASHLQSFLEVSYRVLRHLAQP
modifications: filgrastim
notes: Neupogen (Filgrastim; Granulocyte colony-stimulating factor; G-CSF), positive control article, Amgen
Body weight: Estimate, change relative to vehicle group 2 (Day 0): -0.5 g | Body weight: Estimate, change relative to vehicle group 2 (Day 3): 0.3 g | Body weight: Estimate, change relative to vehicle group 2 (Day 9): -0.4 g | Body weight: Estimate, change relative to vehicle group 2 (Day 15): 0.4 g | Body weight: Estimate, change relative to vehicle group 2 (Day 21): 3.3 g | Body weight: Estimate, change relative to vehicle group 2 (Day 30): 0.5 g
